Experimental data: patent publication US20170239318A1, “COMPOSITONS AND METHODS FOR CARTILAGE DEFECT REPAIR USING A RHAMM-MIMETIC PEPTIDE” (New York University, priority 2014, published 2017)
Where two headings read alike, the source gives them in different places.

What was measured:
[1] = tested on: RHAMM over-expressing LR21 cells; test: in vitro random motility assay (scratch wound, HA fragment-stimulated cell migration); format: cell-based; settings: 50 μg/mL peptide with 500 ng/mL 30-mer HA fragments, 24 hours; relative to PBS control, p<0.05
Procedure: FIG. 2: Effect of peptide 15-1 on fibroblast migration, using an in vitro random motility assay. RHAMM over-expressing LR21 cells were plated on a fibronectin-coated surface in Dulbecco's Modified Eagles Medium (DMEM) with 10% fetal bovine serum (FBS). The following day medium was changed to DMEM with 1% FBS, 50 μg/ml peptide, 500 ng/ml 30-mer HA fragment. Random motility was measured microscopically. “Old P15-1” refers to a peptide batch that was used in previous experiments. As control (ctr), PBS was used instead of peptide.
Functional testing of peptide 15-1 using an in vitro random motility assay. The functional testing of peptide 15-1 using an in vitro random motility assay was done essentially as previously described (16). Briefly, RHAMM over-expressing LR21 cells were plated at 7×10^5 cells/well in fibronectin coated six-well plates using Dulbecco's modified Eagle's medium (DMEM) (Gibco BRL/Invitrogen, Carlsbad, Calif.) containing 10% fetal calf serum (FCS). Confluence of cell monolayers after 24 hours was between 80% and 90%. […] The number of cells that had migrated into the scratch wounds was quantified using NIH image processing software ImageJ as follows. A box adjusted to reach each opposing edge of the wound was placed over 3 randomly assigned parts of each scratch wound and the numbers of cells within the box were counted. […]

[2] = tested on: IL-1β-treated human articular chondrocytes; test: HA released into the medium of IL-1β-treated human articular chondrocytes (ELSA); format: cell-based; settings: 10 ng/ml IL-1β, 48 h
Procedure: FIG. 7: HA concentration in the medium of human articular chondrocytes is increased by IL-1β. A: RHAMM-mimetic peptide at a concentration of 0.026 μg/ml or 0.052 μg/ml (Pep0.026, Pep0.052) had no effect on the HA release into the medium of IL-1β-treated chondrocytes. […] Human articular chondrocytes were serum-starved for 24 h followed by treatment of these cells with 10 ng/ml IL-1β and various concentrations of the RHAMM-mimetic peptide for 48 h. HA released into the medium was measured by ELSA (ELISA-like) specific assay.
Chondrocyte Cultures. Human articular chondrocytes were isolated from articular cartilage samples obtained from patients (donor age range 48-67) undergoing total knee replacement surgery at NYU Hospital for Joint Diseases. Knee cartilage was harvested from regions with no macroscopically evident degeneration. The collection of tissue from patients undergoing knee replacement surgery was approved by the Institutional Regulatory Board (IRB) at NYU School of Medicine. Human chondrocytes were isolated from these cartilage samples and cultured as described by us previously (24). […]
Analysis of HA concentration in Chondrocyte Culture Medium. […] Conditioned media (approximately 1 ml each sample) from chondrocyte cultures were stored frozen at −20° C. until analyzed. […]

skin wound repair = settings: cited from earlier work
[3] = tested on: IL-1β-treated human articular chondrocytes; test: mRNA levels of Cox-2 and type II collagen in IL-1β-treated human articular chondrocytes (real time PCR); format: cell-based; settings: peptide at concentrations up to 64 μg/ml (16, 32, 64), 10 ng/ml IL-1β, 24 h
Procedure: FIG. 8: RHAMM-mimetic peptide at concentrations (16, 32, 64 μg/ml) decreased the mRNA levels of Cox-2 (catabolic marker; A) and increased the mRNA levels of type II collagen (α1 (II), articular cartilage marker, B) in IL-1β-treated human articular chondrocytes. […] Data are expressed as mean±SD from three different cultures.
Chondrocyte Cultures. Human articular chondrocytes were isolated from articular cartilage samples obtained from patients (donor age range 48-67) undergoing total knee replacement surgery at NYU Hospital for Joint Diseases. Knee cartilage was harvested from regions with no macroscopically evident degeneration. […]
RT-PCR and Real-Time PCR Analysis. mRNA levels of catabolic markers (cyclooxygenase (Cox)-2, interleukin (IL)-6, inducible nitric oxide synthase (iNOS), matrix metalloproteinase (MMP)-13) and articular cartilage markers (aggrecan, type II collagen) were determined by real time PCR analysis as described by us previously (25, 26). […] A 1:100 dilution of the resulting cDNA was used as the template to quantify the relative content of mRNA by real-time PCR (STEPONEPLUS™ System; Applied Biosystems, Foster City, Calif.) with the appropriate primers and SYBR Green. […] The cycle threshold values for 18 S RNA and the samples were measured and calculated by computer software.

[4] = tested on: full-thickness excisional rat wound; settings: cited from earlier work
SW982 synovial cell line = test: mRNA levels of catabolic markers in IL-1β-treated SW982 synovial fibroblasts (real time PCR); format: cell-based; settings: 52 ng/ml peptide, 10 ng/ml IL-1β, 24 h
Procedure: FIG. 9: RHAMM-mimetic peptide decreased the mRNA levels of catabolic markers (Cox-2, IL-6, MMP-13) in the SW982 synovial cell line. SW982 cells after being serum-starved for 24 h were treated with RHAMM-mimetic peptide of SEQ ID NO:1 (Pep) at a concentration of 52 ng/ml for 24 h. mRNA levels of Cox-2, IL-6 and MMP-13 were determined by real time PCR using SYBR Green and normalized to the 18 S RNA. mRNA levels are expressed as relative units with the mRNA levels of untreated cells set as 1. Data are expressed as mean±SD from the results of three different cultures.
The synovial fibroblast cell line SW982 was used between passage 3 and passage 7 and cultured in DMEM containing 10% fetal calf serum until the cells reached confluence. Cells were then serum-starved for 24 h and then treated with 10 ng/ml recombinant human IL-1β and 52 ng/ml RHAMM-mimetic peptide for 48 h.
(§1) RT-PCR and Real-Time PCR Analysis. mRNA levels of catabolic markers (cyclooxygenase (Cox)-2, interleukin (IL)-6, inducible nitric oxide synthase (iNOS), matrix metalloproteinase (MMP)-13) and articular cartilage markers (aggrecan, type II collagen) were determined by real time PCR analysis as described by us previously (25, 26). Briefly, total RNA was isolated from chondrocyte cultures using the RNEASY minikit (Qiagen, Valencia, Calif.). One μg of total RNA was reverse transcribed by using an OMNISCRIPT RT kit (Qiagen). A 1:100 dilution of the resulting cDNA was used as the template to quantify the relative content of mRNA by real-time PCR (STEPONEPLUS™ System; Applied Biosystems, Foster City, Calif.) with the appropriate primers and SYBR Green. PCRs were performed with a SYBR Green PCR Master Mix kit (Applied Biosystems), at 95° C. for 10 min followed by 40 cycles at 95° C. for 15 s and 60° C. for 1 min, and 1 cycle at 95° C. for 15 s and 60° C. for 1 min. The 18 S RNA was amplified at the same time and used as an internal control. The cycle threshold values for 18 S RNA and the samples were measured and calculated by computer software.

[5] = tested on: serum-starved human articular chondrocytes; test: mRNA levels of catabolic and articular cartilage markers in serum-starved human articular chondrocytes (real time PCR); format: cell-based; settings: 48 h
Procedure: FIG. 6: RHAMM-mimetic peptide at concentrations up to 5 μg/ml decreased the mRNA levels of iNOS and MMP-13 (catabolic markers; A) and increased the mRNA levels of type II collagen (α1(II), articular cartilage marker, B) in serum-starved human articular chondrocytes. […] In addition, […] of peptide decreased the mRNA levels of type II collagen. Human articular chondrocytes after being serum-starved for 24 h were treated with RHAMM-mimetic peptide of SEQ ID NO:1 (Pep.) at various concentrations (0, 26, 52, 520, 1000, 5000 ng/ml) for 48 h. mRNA levels of iNOS, MMP-13, and type II collagen were determined by real time PCR using SYBR Green and normalized to the 18 S RNA. mRNA levels are expressed as relative units with the mRNA levels of untreated cells set as 1. Data are expressed as mean±SD from the results of three different cultures.
Chondrocyte Cultures. Human articular chondrocytes were isolated from articular cartilage samples obtained from patients (donor age range 48-67) undergoing total knee replacement surgery at NYU Hospital for Joint Diseases. Knee cartilage was harvested from regions with no macroscopically evident degeneration. The collection of tissue from patients undergoing knee replacement surgery was approved by the Institutional Regulatory Board (IRB) at NYU School of Medicine. Human chondrocytes were isolated from these cartilage samples and cultured as described by us previously (24). Before human chondrocyte cultures were treated with inflammatory stimulus (interleukin-1beta (IL-1β), chondrocyte cultures were switched to serum-free medium for 24 h followed by treatment with the inflammatory stimulus. Cells were treated with 10 ng/ml human recombinant IL-1β in phosphate-buffered saline (PBS)/0.1% BSA. In addition, serum-starved cells were treated with RHAMM-mimetic peptide at various concentrations, HMWHA (ORTHOVISC) at a concentration of 1000 μg/ml, and a combination at four different weight ratios (1:60, 1:30, 1:15, 1:8) of peptide and HMWHA. Cells were treated with these various agents for 24 or 48 h under serum-free conditions.
as §1

recombinant RHAMM = target: T1, recombinant RHAMM (Homo sapiens, UniProt O75330); settings: cited from earlier work
T1 sequence (O75330 1-724): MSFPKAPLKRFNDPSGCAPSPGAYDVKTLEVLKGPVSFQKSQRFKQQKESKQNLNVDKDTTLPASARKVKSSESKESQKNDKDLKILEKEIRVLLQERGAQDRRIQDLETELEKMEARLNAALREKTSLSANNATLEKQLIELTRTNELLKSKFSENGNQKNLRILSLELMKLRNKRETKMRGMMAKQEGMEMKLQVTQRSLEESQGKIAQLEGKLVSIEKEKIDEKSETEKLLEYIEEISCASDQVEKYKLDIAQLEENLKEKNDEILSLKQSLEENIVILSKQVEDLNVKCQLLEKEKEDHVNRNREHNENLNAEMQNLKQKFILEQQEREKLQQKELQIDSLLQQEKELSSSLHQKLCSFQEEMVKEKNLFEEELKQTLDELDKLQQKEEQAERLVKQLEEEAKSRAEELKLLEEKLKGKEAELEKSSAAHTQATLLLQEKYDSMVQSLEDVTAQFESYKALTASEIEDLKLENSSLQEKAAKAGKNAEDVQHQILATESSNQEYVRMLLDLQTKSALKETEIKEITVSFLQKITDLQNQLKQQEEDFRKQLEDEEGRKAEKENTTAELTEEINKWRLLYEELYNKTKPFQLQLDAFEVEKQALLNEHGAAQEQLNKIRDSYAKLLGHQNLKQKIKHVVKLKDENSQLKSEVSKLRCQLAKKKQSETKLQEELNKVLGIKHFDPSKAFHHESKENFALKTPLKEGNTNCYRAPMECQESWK

[6] = applied once to the wound, compared to scrambled, negative control peptide
[7] = all concentrations tested (0.026, 0.052, 0.520, 1, 5, 800 μg/ml), vs untreated cells

For STMMSRSHKTRSHHV [RHAMM-mimetic peptide], the “reduction in fibroblast migration (number of cells migrated into the scratch wounds)” value [1] was “statistically significant”, the “HA concentration in conditioned medium (increase caused by IL-1β)” value ([2]; peptide 26 ng/ml or 52 ng/ml) was “little effect” and the “HA concentration in conditioned medium (increase caused by IL-1β)” value ([2]; peptide 17 μg/ml) was “significantly reduced”. The wound repair (skin wound repair; RHAMM−/− mice) was “not”, the wound repair (skin wound repair; wild type mice) was “altered” and the “Cox-2 mRNA levels” value [3] was “decreased”. For the same sequence, the “type II collagen mRNA level” value [3] was “increased”, the scarless healing ([4]; applied once to a full-thickness excisional rat wound) was “promoted a form of scarless healing” and the blood vessel density [4, 6] was “reduced”. For the same sequence, the fibroblast number [4, 6] was “reduced”, the macrophage number [4, 6] was “reduced” and the “type of healing / fibrosis” value ([4]; excisional skin wounds, rat model) was “regenerative type of healing with reduced fibrosis”. For the same sequence, the “Cox-2 mRNA levels” value (SW982 synovial cell line) was “markedly reduced”, the “IL-6 mRNA levels” value (SW982 synovial cell line) was “markedly reduced” and the “MMP-13 mRNA levels” value (SW982 synovial cell line) was “markedly reduced”. The “decrease of mRNA levels of the catabolic markers (iNOS, MMP-13)” value ([5]; 800 μg/ml compared with lower concentrations of the peptide) was “not as effective”, the “type II collagen mRNA level” value ([5]; 800 μg/ml, compared to untreated cells) was “decreased” and the “MMP-13 mRNA levels” value [5, 7] was “decreased”. The “iNOS mRNA levels” value [5, 7] was “decreased”, the “type II collagen mRNA levels” value ([5]; concentrations up to 5 μg/ml, vs untreated cells) was “increased” and the “binding of HA fragments to recombinant RHAMM” value (recombinant RHAMM) was “markedly reduced”.
